Like-named read-outs stand apart in the source and are kept apart here.
Test system: Penicillium funiculosum MRJ-16 mutant strain
Assay type: cell-based
Conditions: 120 hours of fermentation
Protocol: Fermentation process was carried out using ammonium sulphate (3-5 g/L), KH2PO4 (4-6 g/L), MgSO4.7H2O (0.5-1 g/L), CaCO3 (2.5-5 g/L), Glycerol (2-3 g/L), Corn steep solids (25-35 g/L), cellulose (25-40 g/L) and Tween-80 (1-2 ml/L) dissolved in distilled water. Novel Penicillium funiculosum MRJ-16 mutant strain developed in the laboratory was used for the study. […]
Cultivation of Penicillium funiculosum MRJ-16 mutant strain was conducted under conditions and media composition identical to example no. 1 along with inhibitors at different concentration.

Structure (SMILES)	Average FPA/ml (inhibitor 0.5% in media) [FPA/ml]	Average FPA/ml (inhibitor 0.25% in media) [FPA/ml]
CC(=O)O [Acetic acid, acetic acid]	6.49	–
O=Cc1ccco1 [Furfural, furfural]	–	6.83
O=Cc1ccc(CO)o1 [HMF, hydroxyl methyl furfural]	–	6.07
